Experimental data published in US20240132431A1, “METHOD FOR ALKYLATING ACIDIC FUNCTIONAL GROUP” (Chugai Seiyaku Kabushiki Kaisha, priority 2021, published 2024).

Target: T1, Bcl-2 protein (Recombinant Human Bcl-2 Protein) (Homo sapiens, UniProt P10415)
T1 construct: purchased Novus NBP2-34889
Test: Binding evaluation of mixture library compounds to Bcl-2 using AS-MS (affinity selection mass spectrometry)
Conditions: AS-MS, mixture library, Bcl-2, ASMS Ratio(%)=(A−C)/B×100; for ASMS ratio (%) n = 1: replicate n = 1; for ASMS ratio (%) n = 2: replicate n = 2
Procedure, shortened: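 Bcl-2 binding is scored from LC/MS signal retained with protein through gel-filtration spin columns, normalised to unfiltered and protein-free controls. Incubation: 20 μM protein, […] per compound, 1 h, 23° C.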

T1 sequence (P10415 whole entry): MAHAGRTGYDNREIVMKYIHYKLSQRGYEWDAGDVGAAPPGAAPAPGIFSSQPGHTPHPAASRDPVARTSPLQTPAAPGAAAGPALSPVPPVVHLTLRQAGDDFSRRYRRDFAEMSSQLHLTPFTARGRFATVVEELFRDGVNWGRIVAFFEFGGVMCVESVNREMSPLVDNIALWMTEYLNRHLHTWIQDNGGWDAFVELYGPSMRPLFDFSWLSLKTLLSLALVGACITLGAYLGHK

Row | ASMS ratio (%) n = 1 | ASMS ratio (%) n = 2 | Structure (SMILES)
1 | 5.8% | −7.3% | CCOc1cccc(-c2cc(CN3CCN(c4ccc(C(=O)NS(=O)(=O)CC56CC7CC(CC(C7)C5)C6)cc4)CC3)cc(OCC)c2)c1 [B2A055-01, N-(1-Adamantylmethylsulfonyl)-4-[4-[[3-ethoxy-5-(3-ethoxyphenyl)phenyl]methyl]piperazin-1-yl]benzamide]
2 | −3.9% | 0.2% | CCOc1cncc(-c2cc(CN3CCN(c4ccc(C(=O)NS(=O)(=O)CC56CC7CC(CC(C7)C5)C6)cc4)CC3)cc(OCC)c2)c1 [B2A056-01, N-(1-Adamantylmethylsulfonyl)-4-[4-[[3-ethoxy-5-(5-ethoxypyridin-3-yl)phenyl]methyl]piperazin-1-yl]benzamide]
3 | −4.8% | −5.3% | CCOc1cccc(-c2cc(CN3CCN(c4ccc(C(=O)NS(=O)(=O)CC56CC7CC(CC(C7)C5)C6)cc4)CC3)cc(OC(C)C)c2)c1 [B2A057-01, N-(1-Adamantylmethylsulfonyl)-4-[4-[[3-(3-ethoxyphenyl)-5-propan-2-yloxyphenyl]methyl]piperazin-1-yl]benzamide]
4 | 4.8% | −10.6% | CCOc1cncc(-c2cc(CN3CCN(c4ccc(C(=O)NS(=O)(=O)CC56CC7CC(CC(C7)C5)C6)cc4)CC3)cc(OC(C)C)c2)c1 [B2A058-01, N-(1-Adamantylmethylsulfonyl)-4-[4-[[3-(5-ethoxypyridin-3-yl)-5-propan-2-yloxyphenyl]methyl]piperazin-1-yl]benzamide]
5 | 0.0% | −42.2% | CCOc1cccc(-c2cc(OC)c(CN3CCN(c4ccc(C(=O)NS(=O)(=O)CC56CC7CC(CC(C7)C5)C6)cc4)CC3)c(OC)c2)c1 [B2A059-01, N-(1-Adamantylmethylsulfonyl)-4-[4-[[4-(3-ethoxyphenyl)-2,6-dimethoxyphenyl]methyl]piperazin-1-yl]benzamide]
6 | 0.0% | 0.0% | CCOc1cncc(-c2cc(OC)c(CN3CCN(c4ccc(C(=O)NS(=O)(=O)CC56CC7CC(CC(C7)C5)C6)cc4)CC3)c(OC)c2)c1 [B2A060-01, N-(1-Adamantylmethylsulfonyl)-4-[4-[[4-(5-ethoxypyridin-3-yl)-2,6-dimethoxyphenyl]methyl]piperazin-1-yl]benzamide]
7 | 1.7% | −5.6% | CCOc1cccc(-c2cc(CN3CCN(c4ccc(C(=O)NS(=O)(=O)CC56CC7CC(CC(C7)C5)C6)cc4)CC3)cc(C(F)(F)F)c2)c1 [B2A061-01, N-(1-Adamantylmethylsulfonyl)-4-[4-[[3-(3-ethoxyphenyl)-5-(trifluoromethyl)phenyl]methyl]piperazin-1-yl]benzamide]
8 | −5.2% | 3.6% | CCOc1cncc(-c2cc(CN3CCN(c4ccc(C(=O)NS(=O)(=O)CC56CC7CC(CC(C7)C5)C6)cc4)CC3)cc(C(F)(F)F)c2)c1 [B2A062-01, N-(1-Adamantylmethylsulfonyl)-4-[4-[[3-(5-ethoxypyridin-3-yl)-5-(trifluoromethyl)phenyl]methyl]piperazin-1-yl]benzamide]
9 | 0.5% | 3.3% | CCOc1cccc(-c2cc(CN3CCN(c4ccc(C(=O)NS(=O)(=O)CC56CC7CC(CC(C7)C5)C6)cc4)CC3)cc(OC(F)(F)F)c2)c1 [B2A063-01, N-(1-Adamantylmethylsulfonyl)-4-[4-[[3-(3-ethoxyphenyl)-5-(trifluoromethoxy)phenyl]methyl]piperazin-1-yl]benzamide]
10 | 0.0% | −0.3% | CCOc1cncc(-c2cc(CN3CCN(c4ccc(C(=O)NS(=O)(=O)CC56CC7CC(CC(C7)C5)C6)cc4)CC3)cc(OC(F)(F)F)c2)c1 [B2A064-01, N-(1-Adamantylmethylsulfonyl)-4-[4-[[3-(5-ethoxypyridin-3-yl)-5-(trifluoromethoxy)phenyl]methyl]piperazin-1-yl]benzamide]
11 | 10.5% | −2.9% | CCOc1cccc(-c2ccc(CN3CCN(c4ccc(C(=O)NS(=O)(=O)CC56CC7CC(CC(C7)C5)C6)cc4)CC3)c3ccccc23)c1 [B2A065-01, N-(1-Adamantylmethylsulfonyl)-4-[4-[[4-(3-ethoxyphenyl)naphthalen-1-yl]methyl]piperazin-1-yl]benzamide]
12 | 3.2% | 0.0% | CCOc1cncc(-c2ccc(CN3CCN(c4ccc(C(=O)NS(=O)(=O)CC56CC7CC(CC(C7)C5)C6)cc4)CC3)c3ccccc23)c1 [B2A066-01, N-(1-Adamantylmethylsulfonyl)-4-[4-[[4-(5-ethoxypyridin-3-yl)naphthalen-1-yl]methyl]piperazin-1-yl]benzamide]
13 | 0.0% | 0.0% | CCOc1cccc(-c2csc(CN3CCN(c4ccc(C(=O)NS(=O)(=O)CC56CC7CC(CC(C7)C5)C6)cc4)CC3)c2)c1 [B2A067-01, N-(1-Adamantylmethylsulfonyl)-4-[4-[[4-(3-ethoxyphenyl)thiophen-2-yl]methyl]piperazin-1-yl]benzamide]
14 | 0.0% | 0.0% | CCOc1cncc(-c2csc(CN3CCN(c4ccc(C(=O)NS(=O)(=O)CC56CC7CC(CC(C7)C5)C6)cc4)CC3)c2)c1 [B2A068-01, N-(1-Adamantylmethylsulfonyl)-4-[4-[[4-(5-ethoxypyridin-3-yl)thiophen-2-yl]methyl]piperazin-1-yl]benzamide]
15 | 4.6% | −4.6% | CCOc1cccc(C#Cc2ccccc2CN2CCN(c3ccc(C(=O)NS(=O)(=O)CC45CC6CC(CC(C6)C4)C5)cc3)CC2)c1 [B2A069-01, N-(1-Adamantylmethylsulfonyl)-4-[4-[[2-[2-(3-ethoxyphenyl)ethynyl]phenyl]methyl]piperazin-1-yl]benzamide]
16 | – | 0.0% | CCOc1cncc(C#Cc2ccccc2CN2CCN(c3ccc(C(=O)NS(=O)(=O)CC45CC6CC(CC(C6)C4)C5)cc3)CC2)c1 [B2A070-01, N-(1-Adamantylmethylsulfonyl)-4-[4-[[2-[2-(5-ethoxypyridin-3-yl)ethynyl]phenyl]methyl]piperazin-1-yl]benzamide]
17 | 16.1% | 5.6% | CCOc1cccc(-c2ccccc2CN2CCN(c3ccc(C(=O)NS(=O)(=O)CC45CC6CC(CC(C6)C4)C5)nn3)CC2)c1 [B2A071-01, N-(1-Adamantylmethylsulfonyl)-6-[4-[[2-(3-ethoxyphenyl)phenyl]methyl]piperazin-1-yl]pyridazine-3-carboxamide]
18 | 12.2% | 14.7% | CCOc1cncc(-c2ccccc2CN2CCN(c3ccc(C(=O)NS(=O)(=O)CC45CC6CC(CC(C6)C4)C5)nn3)CC2)c1 [B2A072-01]
19 | 16.2% | 13.5% | CCOc1cccc(-c2ccc(CN3CCN(c4ccc(C(=O)NS(=O)(=O)CC56CC7CC(CC(C7)C5)C6)nn4)CC3)cc2C)c1 [B2A073-01, N-(1-Adamantylmethylsulfonyl)-6-[4-[[4-(3-ethoxyphenyl)-3-methylphenyl]methyl]piperazin-1-yl]pyridazine-3-carboxamide]
20 | 9.2% | 1.9% | CCOc1cncc(-c2ccc(CN3CCN(c4ccc(C(=O)NS(=O)(=O)CC56CC7CC(CC(C7)C5)C6)nn4)CC3)cc2C)c1 [B2A074-01, N-(1-Adamantylmethylsulfonyl)-6-[4-[[4-(5-ethoxypyridin-3-yl)-3-methylphenyl]methyl]piperazin-1-yl]pyridazine-3-carboxamide]
21 | 4.6% | 4.4% | CCOc1cccc(-c2ccc(CN3CCN(c4ccc(C(=O)NS(=O)(=O)CC56CC7CC(CC(C7)C5)C6)nn4)CC3)c(CC)c2)c1 [B2A075-01, N-(1-Adamantylmethylsulfonyl)-6-[4-[[4-(3-ethoxyphenyl)-2-ethylphenyl]methyl]piperazin-1-yl]pyridazine-3-carboxamide]
22 | 23.4% | 11.4% | CCOc1cncc(-c2ccc(CN3CCN(c4ccc(C(=O)NS(=O)(=O)CC56CC7CC(CC(C7)C5)C6)nn4)CC3)c(CC)c2)c1 [B2A076-01, N-(1-Adamantylmethylsulfonyl)-6-[4-[[4-(5-ethoxypyridin-3-yl)-2-ethylphenyl]methyl]piperazin-1-yl]pyridazine-3-carboxamide]
23 | 14.3% | 21.9% | CCOc1cccc(-c2ccc(CN3CCN(c4ccc(C(=O)NS(=O)(=O)CC56CC7CC(CC(C7)C5)C6)nn4)CC3)cc2F)c1 [B2A077-01, N-(1-Adamantylmethylsulfonyl)-6-[4-[[4-(3-ethoxyphenyl)-3-fluorophenyl]methyl]piperazin-1-yl]pyridazine-3-carboxamide]
24 | 15.2% | 9.3% | CCOc1cncc(-c2ccc(CN3CCN(c4ccc(C(=O)NS(=O)(=O)CC56CC7CC(CC(C7)C5)C6)nn4)CC3)cc2F)c1 [B2A078-01, N-(1-Adamantylmethylsulfonyl)-6-[4-[[4-(5-ethoxypyridin-3-yl)-3-fluorophenyl]methyl]piperazin-1-yl]pyridazine-3-carboxamide]
25 | 0.0% | 0.0% | CCOc1cncc(-c2ccc(CN3CCN(c4ccc(C(=O)NS(=O)(=O)CC56CC7CC(CC(C7)C5)C6)nn4)CC3)c(OC)c2)c1 [B2A080-01, N-(1-Adamantylmethylsulfonyl)-6-[4-[[4-(5-ethoxypyridin-3-yl)-2-methoxyphenyl]methyl]piperazin-1-yl]pyridazine-3-carboxamide]
